pIC50: −log10 of the molar value.
Experiments:
[1] = tested on: A549 cells; test: xCelligence real-time cell analysis (RTCA) cytotoxicity assay, A549; type: cell-based, human
Description: (§1) The A549 and HeLa cell lines were cultured directly in DMEM (Dulbecco's Modified Eagle Medium), and then supplemented with 10% fetal bovine serum (FBS) and 1% streptomycin/penicillin. Then, the cancer cell samples were kept in a humidified incubator at 37° C. with 5% CO2.
(§2) The cytotoxicity of complexes was measured using xCelligence RTCA DP system (ACEA Biosciences, San Diego, Calif., USA). Briefly, the instrument was positioned in a humidified incubator at 37° C. with 5% CO2. The cytotoxicity experiments were conducted using modified 16-well plate (E-plate) with gold-microelectrodes attached at the base of the wells for the impedance-based attachment detection, cell distribution, and proliferation. A 50 μL of cell-free growth DMEM with 10% FBS was added to the wells. Then, the system was connected to measure the background impedance for each well for 30 min. A549 and HeLa cells were harvested using 0.05% Trypsin-EDTA (ethylenediaminetetraacetic acid), and then counted using LUNA automated cell counter (Logos Biosystem, Seoul, South Korea). 50 μL of the cell suspension was then added directly to each well containing 50 μL of cell-free growth DMEM with 10% FBS—Final to reach cell density of 5×10^3. The plates were left at room temperature for about 30 minutes and then inserted to xCelligence RTCA DP device. The xCelligence RTCA system software v.2.0 automatically monitored the impedance value of individual well. These values are expressed as CI (Cell Index) every 15 minutes. […] Then, cells were real time-monitored for 72 hours. All tested compounds were dissolved in DMSO, while cisplatin in normal saline solution. The final concentration of DMSO was less than 0.1% in each well. For negative control, 0.1% DMSO solution was used. Then IC50 values for all compounds at 24 hours and 72 hours were calculated using RTCA software v.2.0.
(§3) For all impedance profiles, the sigmoidal dose-response curves (FIGS. 2A-D) were obtained, and IC50 values were calculated (see Table 4). The calculations were based upon the CI, which is a relative and dimensionless value representing the impedance change divided by the background value, and thus reflects the overall number of cells and the quality of their attachment [D. Kho, C. MacDonald, R. Johnson, C. P. Unsworth, S. J. O'Carroll, E. du Mez, C. E. Angel, E. S. Graham. […] Biosensors 5 (2015) 199-222, incorporated herein by reference in its entirety]. The CI can change as a function of time, resulting in time-dependent and dose-dependent impedance profiles during an experiment [D. Kho, C. MacDonald, R. Johnson, C. P. Unsworth, S. J. O'Carroll, E. du Mez, C. E. Angel, E. S. Graham. […] Biosensors 5 (2015) 199-222, incorporated herein by reference in its entirety].

[2] = tested on: A549 cells; test: Lactate dehydrogenase (LDH) release assay, A549; type: cell-based, human; details: 72 hours
Description: (§4) The release of lactate dehydrogenase (LDH) of A549 and HeLa cells in response to the cytotoxic effect of complexes 1 and 2 was measured using the LDH cytotoxic kit protocol (Dojindo, japan). The A549 and HeLa cells were plated into 96-well plate at 5×10^5 density for overnight. The cells were treated with complexes (1 and 2) at concentrations of IC25 (0.9 μM), IC50 (1.8 […]), and IC100 (3.6 μM) in triplicate for about 72 hours. In the day of reading, 10 μL of the Lysis Buffer was added to each well of the high control. The plate was incubated at 37° C. in CO2 incubator for 30 minutes. Then, 100 μL of the Working Solution was added to each well and incubated at room temperature for 30 minutes. Then, 50 μL of the Stop Solution was added to each well before measuring the absorbance at 490 nm using Mithras 943 micro-plate reader (Berthold Tech, Wildbad, Germany). The high control (DMSO+Cells suspension+lysis buffer) and low control (DMSO+cell suspension) were used to determine the percentage of fold changes in LDH according to the following equation (I). % in LDH changes=(Low control−Test)/(Low control−High control)×100 (I)
(§5) The release of lactate dehydrogenase (LDH) directly into the culture medium is an indication of loss of membrane integrity of a cell due to necrosis or apoptosis. Therefore, the LDH activity in the medium can be used as an indicator for cell membrane integrity, and thus for measuring cytotoxicity. […] The cytotoxic effect of complexes 1 and 2 was evaluated by the release of lactate dehydrogenase (LDH) on treated cells (A549 and HeLa). The cells were treated with the complexes at concentrations of 0.9 μM, 1.8 μM, and 3.6 μM, respectively, for 72 hours.

[3] = tested on: HeLa cells; test: xCelligence real-time cell analysis (RTCA) cytotoxicity assay, HeLa; type: cell-based, human
Description: as §1, §2, §3

[4] = tested on: HeLa cells; test: Lactate dehydrogenase (LDH) release assay, HeLa; type: cell-based, human; details: 72 hours
Description: as §4, §5

[5] = tested on: HeLa cells; test: Wound healing assay (cell migration); type: cell-based, human; details: for cells migrated, % of the cell-free area (scratch closure): DMSO control approximately 73%
Description: The Culture-Insert 2 Well (ibidi Gmbh, Germany) was placed into micro-plate 24. 70 μL of 5×10^5 of HeLa cells was seeded into the culture-insert. The seeded cells were incubated for 24 hours under a specific condition (37° C., 5% CO2) to form monolayer cells. After 24 hours of the incubation, the culture-inserts were removed and the cells were gently washed with PBS to remove cell debris and detached cells. The cells were then treated with the cell culture mediums containing complex 1 at specific concentrations (1, 3, 10, 30 μM) and containing 0.1% DMSO as control. All assays were conducted in duplicates. In order to analyze the migration capacity, images of the cells were taken at 0 hours, 6 hours, and 12 hours using Optika microscope, Italy. The gap closure was determined using a web-based quantitative image solution (http://www.metavilabs.com/metavi2/index.html)
Cell migration is essential in the development and maintenance of multicellular organism. It plays a central role in tissue formation during embryonic development, organ formation, immune responses, and most importantly (as in this experiment) in wound healing. Wound healing assay is a standard in vitro technique to determine collective cell migration in two dimensions. In this assay, an insert is used to create a cell-free gap in confluent monolayer cells. The wound healing assay is initiated by removing the insert. The cell-free gap is then exposed to the cell culture medium to induce the cells to migrate into the gap until new cell-to-cell contacts are established.
The wound healing images were recorded at three different time intervals using microscope to assess the directional collective migration of the cells. The rate of wound healing was determined by measuring the change in the gap size of the cell-free area after treatment with various concentrations of complex 1 recorded over specific time-intervals (e.g., 0 hour, 6 hours, and 12 hours). The gap was measured for each frame in the wound healing and plotted as a function of time to determine the cell migration rate. The effect of varying concentration of complex 1 (1, […], 10, 30 μM) and 0.1% of DMSO (control cells) against HeLa cell migration rate was studied. […] Meanwhile, the cells treated with four different concentrations of complex 1 (1, 3, 10, 30 μM) migrated approximately 57%, 54%, 49%, and 28%, respectively. […] Further molecular studies are required to understand the mechanism behind the inhibition of cell migration.

[6] = tested on: mice; test: Acute kidney toxicity study
Excerpt: The mice were separated into three groups ((I), (II), and (III)) with four animals per each cage. Group (I) was served as normal control group, which received only vehicle (0.1 volume % DMSO). […] Six hours prior to the experiment, no food and water were given. […] On the day three, the animals were sacrificed by the overdose of xylazine and ketamine anesthesia. Blood samples were collected for Blood Urea Nitrogen (BUN) and serum creatinine (CRE2) measurements. All mice were allowed one week to acclimatize prior to the experiments (five animals per cage), under standard environmental conditions (12 h light-dark cycle). The animal studies were performed according to the king Saud University ethical committee.
Kidney biochemical markers, BUN and CRE2, were used for nephrotoxicity study.

[7] = equimolar single doses of 25 mg/kg, 72 hours

| SMILES | pIC50 ([1]; A549, 24 hours) | pIC50 ([1]; A549, 72 hours) | Percent (%) release of LDH ([2]; A549, 0.9 μM) [%] | Percent (%) release of LDH ([2]; A549, 1.8 μM) [%] | Percent (%) release of LDH ([2]; A549, 3.6 μM) [%] | pIC50 ([3]; 24 hours) | pIC50 ([3]; 72 hours) | Percent (%) release of LDH ([4]; 0.9 μM) [%] | Percent (%) release of LDH ([4]; 1.8 μM) [%] | Percent (%) release of LDH ([4]; 3.6 μM) [%] | other results |
| --- | --- | --- | --- | --- | --- | --- | --- | --- | --- | --- | --- |
| C1=CC2C3C=CC(C3)C2C1.CCN(CC)C(=S)[S][Pt+].F[P-](F)(F)(F)(F)F (centres unmarked) [Complex 2] | 5.12 | 5.47 | 32.18 ± 0.004 | 41.05 ± 0.01 | 44.85 ± 0.01 | 5.21 | 5.45 | 45.52 ± 0.001 | 68.19 ± 0.04 | 94.13 ± 0.05 |  |
| C1=CC2C3C=CC(C3)C2C1.F[P-](F)(F)(F)(F)F.S=C([S][Pt+])N(Cc1ccccc1)Cc1ccccc1 [Complex 3] | 5.48 | 5.11 |  |  |  | 5.50 | 4.94 |  |  |  | change in cytotoxicity with longer exposure time ([1]; A549, 24 vs 72 hours): a decrease in cytotoxicity was observed with longer exposure time; change in cytotoxicity with longer exposure time ([3]; 24 vs 72 hours): a decrease in cytotoxicity was observed with longer exposure time |
| N.N.[Cl][Pt][Cl] [Cisplatin, reference compound] | < 4.52 | < 4.52 |  |  |  | < 4.52 | < 4.52 |  |  |  |  |
| C1=CC2C3C=CC(C3)C2C1.CN(C)C(=S)[S][Pt+].F[P-](F)(F)(F)(F)F (centres unmarked) [Complex 1] | 5.53 | 5.76 | 31.93 ± 0.01 | 43.33 ± 0.02 | 47.00 ± 0.01 | 5.76 | 5.73 | 60.16 ± 0.02 | 73.07 ± 0.03 | 95.57 ± 0.02 | cells migrated, % of the cell-free area (scratch closure) ([5]; 1 μM): approximately 57%; cells migrated, % of the cell-free area (scratch closure) ([5]; 3 μM): ~54%; cells migrated, % of the cell-free area (scratch closure) ([5]; 10 μM): ~49%; cells migrated, % of the cell-free area (scratch closure) ([5]; 30 μM): ~28%; effect on cell migration rate ([5]; 1-30 μM, 0-12 h): slowed down the cell migration rate in a concentration-dependent manner; Blood Urea Nitrogen (BUN) level in Plasma ([6]; 72 h after single dose, 25 mg/kg cisplatin or equimolar complex 1, CTR 6.7 ± 0.1): 6.06 ± 0.08; Creatinine (CRE2) level in Plasma ([6]; 72 h after single dose, 25 mg/kg cisplatin or equimolar complex 1, CTR 17.4 ± 0.58): 15.8 ± 0.45; BUN and CRE2 levels in response to the complex (in words) ([6]; 72 hours): control and normal; physical or abnormal changes [6, 7]: No physical or abnormal changes; survival of the treatment period [6, 7]: all animals survived; acute kidney toxicity compared to cisplatin ([6]; nephrotoxicity tests): less toxic compared to cisplatin |

From patent US11117912B1, “Platinum(II) complexes containing dicyclopentadiene and dithiocarbamate as anticancer agents” (King Fahd University of Petroleum and Minerals, priority 2020, dated 2021)
